From paper PMC11784115, “Trypsin-instructed bioactive peptide nanodrugs with cascading transformations to improve chemotherapy against colon cancer” (Journal of Nanobiotechnology, 2025)
Read-outs that look alike come from different tables or passages of the source. Where a SMILES comes first, the peptide text is derived from it. The star is where a group is joined. Acetyl(2-naphthyl) = O=C(Cc1ccc2ccccc2c1)*

How the values were obtained:
HT29-xenografted tumor = experiment: In vivo antitumor efficacy, HT29 xenograft; parameters: species or system BALB/C nude mice; details: for percentage of Ki67-positive signals in tumor tissues: tumor tissue, day 21
Description: HT29 tumor-bearing mice model was developed to study the antitumor effect in vivo of 1-Pept/Dox NFs. HT29 cell suspension (100 µL, 5.0 × 10^6 cells) was mixed with an equal volume of Matrigel. Then, the mixtures were subcutaneously injected into the right back of male BALB/C nude mice (6–8 weeks, Jinan Pengyue Experimental Animal Breeding Co., Itd, China). […] (1) PBS; (2) 1-Pept NFs; […] The dosage was fixed as 13 µmol/kg for Dox moiety and 130 µmol/kg for 1-Pept. The tumor size and body weight of the mice were determined every three days. The tumor size was obtained using the equation V = L×W^2/2, where L and W denote the length and width, respectively. At the end of the day 21st, the tumor tissues were collected for HE staining to observe morphological changes in tumor cells. The actin and tubulin staining of the cell sections was also conducted to study the cytoskeleton changes after drug treatment. The Ki-67 staining was conducted to observe the proliferative status of tumor cells. Meanwhile, the signals of TUNEL and expressions of activated caspase-3 were also measured by immunohistochemical staining.

[1] = Minimum gelation concentration (MGC) by vial inversion; type: physicochemical; details: PBS, neutral pH, Tps 5 U/mL or Dox 0.1 eq where present
Description: The enzyme-directed assembly behavior of 1-Pept was subsequently investigated. 1-Pept was dissolved in PBS solution, and the pH was adjusted to neutral condition. The formation of 1-Pept nanofibrillar hydrogels was monitored via a vial inversion method. 1-Pept/Tps NFs were obtained after mixing Tps (5 U/mL) with 1-Pept solution. The MGC of 1-Pept NFs and 1-Pept/Tps NFs could be determined when the samples could not flow.
1-Pept (1.0 wt%) was dissolved in PBS solution and mixed with 0.1 equivalents of Dox to obtain 1-Pept/Dox NFs (1.0 wt%/0.1 eq), and the solutions were kept at 25 °C to obtain 1-Pept/Dox NFs. The MGC, CAC, microscopic morphology, CD analysis, and viscoelasticity were tested according to the above procedures. The intermolecular force between 1-Pept and Dox was examined with fluorescent spectroscopy. Simply, Dox solution (20 µg/mL) was incubated with different concentrations (125, 62.5, 31.3, 15.6, 7.81, and 3.90 µg/mL) of 1-Pept solutions, and the fluorescent spectrum of the sample was recorded at a fixed excitation wavelength of […]. Ulteriorly, the electrostatic interactions between 1-Pept and Dox were explored by adding sodium chloride solution (2 M).

rabbit red blood cells = test system: rabbit red blood cells
Description: To begin with, the biocompatibility of 1-Pept/Dox NFs was explored from hematological compatibility and histocompatibility. The hemolysis ratio of 1-Pept/Dox NFs was evaluated based on rabbit red blood cells (RBCs). […] Then, the samples were first centrifuged to obtain the supernatant and measured the absorbance at 540 nm. Deionized water served as a positive group and 0.9% of the NaCl solution was utilized as a negative group. The hemolysis ratio of samples was obtained according to the hemolysis rate equation.

HT29 cells = type: cell-based, human
Description: HT29 cells were incubated in a 96-well microplate and cultured with 1-Pept/Dox NFs for 48 h. The concentrations of Dox were between 12.5 and 0.391 µM, and 1-Pept were between 125 and 3.91 µM. Then, a fixed volume of 20 µL MTT (5 mg/mL) was added to the wells for co-incubation. After 4 h, the generated formazan could be found. After dissolving in DMSO, the absorbance values were recorded at 490 nm utilizing a microplate reader (Multiskan FC). By comparing the absorbance of the samples and the controls, the cell’s survival rates were calculated. The IC50 values were obtained by Origin 8.0 software. Simultaneously, the MTT assays for NCM460, SW620, SW480, and HCT-15 were performed using the aforementioned procedures.

trypsin (Tps) = experiment: in vitro; details: isolated enzyme
Description: 1-Pept (1 mg/mL) was dissolved in PBS solution, and the pH was modulated to a neutral condition. After that, Tps (1 U/mL) was added to the solution to trigger the conversion of 1-Pept (NapFFGYKCD) into Pept (NapFFGYK). At fixed time points, 50 µL 1-Pept solution was taken out and mixed with 150 µL methanol to obtain the mixed solution. Finally, the mixed solution was analyzed with HPLC-MS to investigate the conversion rate.

[2] = In vitro release from 1-Pept/Dox NFs (HPLC), Ritger-Peppas fitting; type: physicochemical
Description: The in vitro drug release profile of 1-Pept/Dox NFs was conducted in a constant temperature vibrator (40 rpm, 37 °C). 1-Pept/Dox NFs (200 µL, 1.0 wt%/0.1 eq) were prepared and incubated with 200 µL PBS buffer (pH = 7.4, 6.5 and 5.5). At particular time points, 200 µL liquid supernatant was sucked out and further analyzed by HPLC. Simultaneously, 200 µL fresh PBS was added to maintain a fixed volume. Free Dox solutions were used as controls.

[3] = free Dox solution, 12-h release

minimum gelation concentration (MGC) [1] [wt%] | IC50 (HT29 cells; 48 h) [µM] | metabolised at 72 h, 1 mg/mL (trypsin (Tps)) [%] | Structure (SMILES) | percentage of Ki67-positive signals in tumor tissues (HT29-xenografted tumor) [%] | hemolysis rate (rabbit red blood cells; red cells of rabbit, 1 h, 1.0 wt%) [%] | cumulative release of Dox at 12 h ([2]; free Dox solution control, PBS, 37 °C, 40 rpm, HPLC) [%] | Ritger-Peppas exponential factor n, Dox release [2, 3] | Ritger-Peppas k, Dox release [2, 3] | tumor volume growth rate on the 21st day (HT29-xenografted tumor; peritumoral s.c. injection days 1, 4, 7, 10, 13 µmol/kg Dox, 130 µmol/kg 1-Pept) | hemolysis rate (rabbit red blood cells) [%] | IC50 (HT29 cells; HT29, 48 h, MTT, read-out: IC50 value of Dox) [µM]
0.8 | 134 | > 90 | NCCCC[C@H](NC(=O)[C@H](Cc1ccc(O)cc1)NC(=O)CNC(=O)[C@H](Cc1ccccc1)NC(=O)[C@H](Cc1ccccc1)NC(=O)Cc1ccc2ccccc2c1)C(=O)N[C@@H](CS)C(=O)N[C@@H](CC(=O)O)C(=O)O [1-Pept, 2-Naphthylacetic acid-Phe-Phe-Gly-Tyr-Lys-Cys-Asp] ({Acetyl(2-naphthyl)}-FFGYKCD-OH) | 60 | 1.1 |  |  |  |  |  | 
 |  |  | COc1cccc2c1C(=O)c1c(O)c3c(c(O)c1C2=O)C[C@@](O)(C(=O)CO)C[C@@H]3O[C@H]1C[C@H](N)[C@H](O)[C@H](C)O1 [Dox, Doxorubicin] | 45 |  | 51 | 0.35 | 0.21 | 3.3 | 2.8 | 2.8
